Like-named read-outs stand apart in the source and are kept apart here.
Legend:
[1] = biological target: T1, West Nile Virus (WNV) NS2B-NS3 protease (West Nile virus, UniProt Q9Q6P4); experiment: WNV protease inhibition assay; assay type: biochemical; conditions: Table 4; letter codes for IC50
T1 construct: NS2B1423-1470); purchased R&D 2907-SE-020
Excerpt: WNV protease inhibition assay

ZIKV replicon = experiment: ZIKV replication inhibition assay (NanoLuc replicon in Vero cells); conditions: Zika virus, Vero, 72 h
[2] = read-out: ZIKA Cell_Nanoluc, Vero cells with stable ZIKV replicon, 72 h, Nano-Glo readout

T1 sequence (Q9Q6P4 1423-1470): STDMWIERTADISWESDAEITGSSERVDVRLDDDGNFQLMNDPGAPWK
T1 sequence (Q9Q6P4 1506-1689): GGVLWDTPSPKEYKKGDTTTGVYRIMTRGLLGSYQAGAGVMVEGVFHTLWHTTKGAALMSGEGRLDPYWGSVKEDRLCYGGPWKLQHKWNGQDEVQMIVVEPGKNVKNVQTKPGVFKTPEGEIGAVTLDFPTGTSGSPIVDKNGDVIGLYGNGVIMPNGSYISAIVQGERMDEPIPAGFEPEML

Row | Compound | IC50 [1] | EC50 (ZIKV replicon; read-out: ZIKA Cell_Nanoluc) | EC50 (ZIKV replicon; [2])
1 | O=C([N-]c1c[n+](C[C@H]2CC[C@@H](c3cncnc3)CC2)no1)Nc1ccnc(C(F)(F)F)c1 [Example 182, (3-(((1S,4S)-4-(Pyrimidin-5-yl)cyclohexyl)methyl)-1,2,3-oxadiazol-3-ium-5-yl)((2-(trifluoromethyl)pyridin-4-yl)carbamoyl)amide] | 0.1 to 1 µM | 1 to 20 µM | 
2 | O=C([N-]c1c[n+](CC23CC(c4cncnc4)(C2)C3)no1)Nc1cccc(C(F)(F)F)c1 [Example 183, (3-((3-(Pyrimidin-5-yl)bicyclo[1.1.1]pentan-1-yl)methyl)-1,2,3-oxadiazol-3-ium-5-yl)((3-(trifluoromethyl)phenyl)carbamoyl)amide] | 0.1 to 1 µM |  | 0.1 to 1 µM
3 | Cc1ncnc(C)c1-c1ccc(C[n+]2cc([N-]C(=O)Nc3cccc(C(F)(F)F)c3)on2)nn1 [Example 184, (3-((6-(4,6-Dimethylpyrimidin-5-yl)pyridazin-3-yl)methyl)-1,2,3-oxadiazol-3-ium-5-yl)((3-(trifluoromethyl)phenyl)carbamoyl)amide] | 0.1 to 1 µM |  | 0.1 to 1 µM
4 | O=C([N-]c1c[n+](CC23CCC(c4cncnc4)(CC2)C3)no1)Nc1ccnc(C(F)(F)F)c1 [Example 185, (3-((4-(Pyrimidin-5-yl)bicyclo[2.2.1]heptan-1-yl)methyl)-1,2,3-oxadiazol-3-ium-5-yl)((2-(trifluoromethyl)pyridin-4-yl)carbamoyl)amide] | 0.1 to 1 µM |  | 1 to 20 µM
5 | O=C([N-]c1c[n+](C[C@H]2CC[C@H](c3cncnc3)CC2)no1)Nc1cccc(C(F)(F)F)c1 [Example 186, (3-(((1R,4R)-4-(Pyrimidin-5-yl)cyclohexyl)methyl)-1,2,3-oxadiazol-3-ium-5-yl)((3-(trifluoromethyl)phenyl)carbamoyl)amide] | 0.1 to 1 µM | 1 to 20 µM | 
6 | O=C([N-]c1c[n+](C[C@H]2CC[C@H](c3cncnc3)CC2)no1)Nc1ccnc(C(F)(F)F)c1 [Example 187, (3-(((1R,4R)-4-(Pyrimidin-5-yl)cyclohexyl)-methyl)-1,2,3-oxadiazol-3-ium-5-yl)((2-(trifluoromethyl)pyridin-4-yl)carbamoyl)amide] | 0.1 to 1 µM | 0.1 to 1 µM | 
7 | Cc1nnccc1-c1ccc(C[n+]2cc([N-]C(=O)Nc3ccnc(C(F)(F)F)c3)on2)cc1 [Example 188, (3-(4-(3-Methylpyridazin-4-yl)benzyl)-1,2,3-oxadiazol-3-ium-5-yl)((2-(trifluoromethyl)-pyridin-4-yl)carbamoyl)amide] | < 0.1 µM |  | < 0.1 µM
8 | CN(C)C[C@H]1CC[C@H]([n+]2cc([N-]C(=O)Nc3cc(NC(=O)Cc4ccccc4O)cc(C(F)(F)F)c3)on2)CC1 [Example 191, (3-((1R,4R)-4-((Dimethylamino)methyl)-cyclohexyl)-1,2,3-oxadiazol-3-ium-5-yl)((3-(2-(2-hydroxyphenyl)acetamido)-5-(trifluoromethyl)-phenyl)carbamoyl)amide] | 1 to 20 µM | < 0.1 µM | 
9 | CN(C)C[C@H]1CC[C@H]([n+]2cc([N-]C(=O)Nc3cc(NC(=O)Cc4ccccc4Cl)nc(C(F)(F)F)c3)on2)CC1 [Example 193, ((2-(2-(2-Chlorophenyl)acetamido)-6-(trifluoromethyl)pyridin-4-yl)carbamoyl)(3-((1R,4R)-4-((dimethylamino)methyl)-cyclohexyl)-1,2,3-oxadiazol-3-ium-5-yl)amide] | 1 to 20 µM | 0.1 to 1 µM | 
10 | CN(C)C[C@H]1CC[C@H]([n+]2cc([N-]C(=O)Nc3cc(NC(=O)C(F)c4ccccc4F)cc(C(F)(F)F)c3)on2)CC1 (stereo partly drawn) [Example 194, (3-((1R,4R)-4-((Dimethylamino)methyl)-cyclohexyl)-1,2,3-oxadiazol-3-ium-5-yl)((3-(2-fluoro-2-(2-fluorophenyl)acetamido)-5-(trifluoromethyl)phenyl)carbamoyl)amide] | 0.1 to 1 µM | < 0.1 µM | 
11 | CN(C)C[C@H]1CC[C@H]([n+]2cc([N-]C(=O)Nc3cc(NC(=O)C4Cc5ccccc54)cc(C(F)(F)F)c3)on2)CC1 (some centres unmarked) [Example 195] | 1 to 20 µM | 0.1 to 1 µM | 
12 | CN(C)C[C@H]1CC[C@H]([n+]2cc([N-]C(=O)Nc3cc(NC(=O)Cc4cccc(O)n4)cc(C(F)(F)F)c3)on2)CC1 [Example 196, (3-((1R,4R)-4-((Dimethylamino)methyl)-cyclohexyl)-1,2,3-oxadiazol-3-ium-5-yl)((3-(2-(6-hydroxypyridin-2-yl)acetamido)-5-(trifluoromethyl)phenyl)carbamoyl)amide] | 1 to 20 µM | 0.1 to 1 µM | 
13 | Cc1noc(C)c1CC(=O)Nc1cc(NC(=O)[N-]c2c[n+]([C@H]3CC[C@H](CN(C)C)CC3)no2)cc(C(F)(F)F)c1 [Example 197, (3-((1R,4R)-4-((Dimethylamino)methyl)-cyclohexyl)-1,2,3-oxadiazol-3-ium-5-yl)((3-(2-(3,5-dimethylisoxazol-4-yl)acetamido)-5-(trifluoromethyl)phenyl)carbamoyl)amide] | 1 to 20 µM | < 0.1 µM | 
14 | CN(C)C[C@H]1CC[C@H]([n+]2cc([N-]C(=O)Nc3cc(NC(=O)Cc4c(F)cccc4Cl)cc(C(F)(F)F)c3)on2)CC1 [Example 198, ((3-(2-(2-Chloro-6-fluorophenyl)acetamido)-5-(trifluoromethyl)phenyl)carbamoyl)(3-((1R,4R)-4-((dimethylamino)methyl)cyclohexyl)-1,2,3-oxadiazol-3-ium-5-yl)amide] | 1 to 20 µM | < 0.1 µM | 
15 | CN(C)C[C@H]1CC[C@H]([n+]2cc([N-]C(=O)Nc3cc(NC(=O)Cc4c(F)cccc4F)cc(C(F)(F)F)c3)on2)CC1 [Example 199, ((3-(2-(2,6-Difluorophenyl)acetamido)-5-(trifluoromethyl)phenyl)carbamoyl)(3-((1R,4R)-4-((dimethylamino)methyl)cyclohexyl)-1,2,3-oxadiazol-3-ium-5-yl)amide] | 0.1 to 1 µM | < 0.1 µM | 
16 | Cc1ccccc1CC(=O)Nc1cc(NC(=O)[N-]c2c[n+]([C@@H]3CCC[C@H](N(C)C)C3)no2)cc(C(F)(F)F)c1 [Example 202, (3-((1R,3S)-3-(Dimethylamino)cyclohexyl)-1,2,3-oxadiazol-3-ium-5-yl)((3-(2-(o-tolyl)acetamido)-5-(trifluoromethyl)phenyl)-carbamoyl)amide] | 0.1 to 1 µM |  | 1 to 20 µM
17 | Cc1ccccc1CC(=O)Nc1cc(NC(=O)[N-]c2c[n+]([C@@H]3CCCC[C@H]3O)no2)cc(C(F)(F)F)c1 [Example 203, (3-((1R,2R)-2-Hydroxycyclohexyl)-1,2,3-oxadiazol-3-ium-5-yl)((3-(2-(o-tolyl)acetamido)-5-(trifluoromethyl)phenyl)carbamoyl)amide] | 0.1 to 1 µM |  | 0.1 to 1 µM
18 | CN(C)[C@H]1CCC[C@@H]([n+]2cc([N-]C(=O)Nc3ccnc(C(F)(F)F)c3)on2)C1 [Example 204, (3-((1R,3S)-3-(Dimethylamino)cyclohexyl)-1,2,3-oxadiazol-3-ium-5-yl)((2-(trifluoromethyl)-pyridin-4-yl)carbamoyl)amide] | 0.1 to 1 µM |  | 1 to 20 µM
19 | CC(C(=O)Nc1cc(NC(=O)[N-]c2c[n+]([C@H]3CC[C@H](CN(C)C)CC3)no2)cc(C(F)(F)F)c1)c1ccccc1Cl (stereo partly drawn) [Example 205, ((3-(2-(2-Chlorophenyl)propanamido)-5-(trifluoromethyl)phenyl)carbamoyl)(3-((1R,4R)-4-((dimethylamino)methyl)cyclohexyl)-1,2,3-oxadiazol-3-ium-5-yl)amide] | 0.1 to 1 µM | 1 to 20 µM | 
20 | Cc1ccccc1CC(=O)Nc1cc(NC(=O)[N-]c2c[n+]([C@H]3CC[C@H](C(C)(C)O)CC3)no2)cc(C(F)(F)F)c1 [Example 206, (3-((1R,4R)-4-(2-Hydroxypropan-2-yl)cyclohexyl)-1,2,3-oxadiazol-3-ium-5-yl)((3-(2-(o-tolyl)acetamido)-5-(trifluoromethyl)phenyl)-carbamoyl)amide] | < 0.1 µM | 0.1 to 1 µM | 
21 | Cc1ncnc(C)c1-c1ccc(C[n+]2cc([N-]C(=O)Nc3ccc(C#N)c(C(F)(F)F)c3)on2)cc1 [Example 207, ((4-Cyano-3-(trifluoromethyl)phenyl)-carbamoyl)(3-(4-(4,6-dimethylpyrimidin-5-yl)benzyl)-1,2,3-oxadiazol-3-ium-5-yl)amide] | 0.1 to 1 µM |  | 0.1 to 1 µM
22 | CN(C)C[C@H]1CC[C@H]([n+]2cc([N-]C(=O)Nc3cc(NC(=O)C(C)(C)c4ccccc4)cc(C(F)(F)F)c3)on2)CC1 [Example 208, (3-((1R,4R)-4-((Dimethylamino)methyl)-cyclohexyl)-1,2,3-oxadiazol-3-ium-5-yl)((3-(2-methyl-2-phenylpropanamido)-5-(trifluoromethyl)phenyl)carbamoyl)amide] | 0.1 to 1 µM | 1 to 20 µM | 
23 | COc1cc(NC(=O)[N-]c2c[n+](Cc3ccc(-c4c(C)ncnc4C)cc3)no2)ccn1 [Example 209, (3-(4-(4,6-Dimethylpyrimidin-5-yl)benzyl)-1,2,3-oxadiazol-3-ium-5-yl)((2-methoxypyridin-4-yl)carbamoyl)amide] | 0.1 to 1 µM |  | 1 to 20 µM
24 | Cc1nc(-c2ccc(C[n+]3cc([N-]C(=O)Nc4ccnc(C(F)(F)F)c4)on3)cc2)cs1 [Example 210, (3-(4-(2-Methylthiazol-4-yl)benzyl)-1,2,3-oxadiazol-3-ium-5-yl)((2-(trifluoromethyl)pyridin-4-yl)carbamoyl)amide] | 0.1 to 1 µM |  | 1 to 20 µM
25 | Cc1nsc(C)c1-c1ccc(C[n+]2cc([N-]C(=O)Nc3ccnc(C(F)(F)F)c3)on2)cc1 [Example 211, (3-(4-(3,5-Dimethylisothiazol-4-yl)benzyl)-1,2,3-oxadiazol-3-ium-5-yl)((2-(trifluoromethyl)-pyridin-4-yl)carbamoyl)amide] | 0.1 to 1 µM |  | 1 to 20 µM

From patent publication EP4563146A1 (IRBM S.P.A., priority 2023, dated 2025)
